# Results as given in PubChem BioAssay (NCI).
#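 Step 1: Grow cells in 96-well plates. Step 2: Expose to compound for 48 hours at 5 concentrations. Step 3: Interpolate endpoints linearly; if unreached, use highest concentration. Here, GI50 denotes the concentration required for 50% inhibition of growth. At the TGI there is no net growth.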
# Tests used:
# Experiment in all cases: NCI tumour cell line growth inhibition, 48 h
# [1] = test system: PC-3 prostate
# [2] = test system: A549 NSCLC
# [3] = test system: HL-60(TB) leukemia
# [4] = test system: SF-268 CNS
# [5] = test system: SK-MEL-5 melanoma
# [6] = test system: NCI/ADR-RES ovarian
# [7] = test system: MDA-MB-435
# [8] = test system: DMS 114 small cell lung
# [9] = test system: NCI-H460 lung
# [10] = test system: LOX IMVI melanoma
# [11] = test system: HOP-18 NSCLC
# [12] = test system: SNB-78 CNS
# [13] = test system: DMS 273 small cell lung
# [14] = test system: SK-MEL-28 melanoma
# [15] = test system: HCT-116 colon
# [16] = test system: COLO 205 colon
# [17] = test system: SW-620 colon
# [18] = test system: SN12C renal
# [19] = test system: SK-OV-3 ovarian
# [20] = test system: P388/ADR leukemia
# [21] = test system: A498 renal
# [22] = test system: NCI-H522 lung
# [23] = test system: SNB-19 CNS
# [24] = test system: ACHN renal
# [25] = test system: NCI-H226 lung
# [26] = test system: XF 498 CNS
# [27] = test system: DLD-1 colon
# [28] = test system: NCI-H23 lung
# [29] = test system: MOLT-4 leukemia
# [30] = test system: UACC-62 melanoma
# [31] = test system: MDA-MB-231 breast
# [32] = test system: P388 leukemia
# [33] = test system: RXF 393 renal
# [34] = test system: 786-0 renal
# [35] = test system: OVCAR-8 ovarian
# [36] = test system: HS 578T breast
# [37] = test system: IGROV1 ovarian
# [38] = test system: KM12 colon
# [39] = test system: SF-295 CNS
# [40] = test system: EKVX NSCLC
# [41] = test system: DU-145 prostate
# [42] = test system: MALME-3M melanoma
# [43] = test system: M14 melanoma
# [44] = test system: BT-549 breast
# [45] = test system: K-562 leukemia
# [46] = test system: HOP-92 NSCLC
# [47] = test system: MCF7 breast
# [48] = test system: SR leukemia
# [49] = test system: UACC-257 melanoma
# [50] = test system: HOP-62 NSCLC
# [51] = test system: HT29 colon
# [52] = test system: RPMI-8226 leukemia
# [53] = test system: OVCAR-5 ovarian
# [54] = test system: HCT-15 colon
# [55] = test system: OVCAR-4 ovarian
# [56] = test system: UO-31 renal
# [57] = test system: OVCAR-3 ovarian
# [58] = test system: SNB-75 CNS
# [59] = test system: CAKI-1 renal
# [60] = test system: HCC-2998 colon
# [61] = test system: SN12K1 renal
# [62] = test system: KM20L2 colon
# [63] = test system: SF-539 CNS
# [64] = test system: SK-MEL-2 melanoma
# [65] = test system: U251 CNS
# [66] = test system: TK-10 renal
# [67] = test system: CCRF-CEM leukemia
compound,measurement,setting,value
COc1ccc2[nH]c3c(C)c4ccncc4c(C)c3c2c1,GI50,[1],84.3 nM
same,TGI,[1],2020 nM
same,TGI,[2],2150 nM
same,TGI,[3],2420 nM
same,TGI,[4],4650 nM
same,TGI,[5],2860 nM
same,TGI,[6],1960 nM
same,GI50,[7],208 nM
same,TGI,[7],1670 nM
same,TGI,[8],4490 nM
same,TGI,[9],892 nM
same,TGI,[10],4290 nM
same,TGI,[11],6440 nM
same,TGI,[12],11700 nM
same,TGI,[13],1950 nM
same,TGI,[14],9060 nM
same,TGI,[15],1500 nM
same,TGI,[16],1600 nM
same,TGI,[17],1560 nM
same,TGI,[18],2540 nM
same,TGI,[19],5160 nM
same,TGI,[20],3470 nM
same,TGI,[21],2100 nM
same,TGI,[22],2470 nM
same,TGI,[23],7830 nM
same,GI50,[24],19.4 nM
same,TGI,[24],1510 nM
same,TGI,[25],3890 nM
same,TGI,[26],6660 nM
same,TGI,[27],1330 nM
same,TGI,[28],2100 nM
same,TGI,[29],802 nM
same,TGI,[30],2540 nM
same,GI50,[31],307 nM
same,TGI,[31],1870 nM
same,TGI,[32],1870 nM
same,TGI,[33],477 nM
same,GI50,[34],43.6 nM
same,TGI,[34],1490 nM
same,TGI,[35],1920 nM
same,GI50,[36],1130 nM
same,TGI,[36],3550 nM
same,TGI,[37],2410 nM
same,TGI,[38],1680 nM
same,TGI,[39],1260 nM
same,TGI,[40],2710 nM
same,GI50,[41],130 nM
same,TGI,[41],1590 nM
same,TGI,[42],5730 nM
same,GI50,[43],290 nM
same,TGI,[43],1630 nM
same,GI50,[44],757 nM
same,TGI,[44],2110 nM
same,TGI,[45],1430 nM
same,TGI,[46],935 nM
same,TGI,[47],2200 nM
same,TGI,[48],6830 nM
same,TGI,[49],8120 nM
same,TGI,[50],3090 nM
same,TGI,[51],2400 nM
same,TGI,[52],2730 nM
same,TGI,[53],4070 nM
same,TGI,[54],2300 nM
same,TGI,[55],1580 nM
same,TGI,[56],4250 nM
same,TGI,[57],2460 nM
same,TGI,[58],2770 nM
same,TGI,[59],5490 nM
same,TGI,[60],5570 nM
same,TGI,[61],1310 nM
same,TGI,[62],7320 nM
same,TGI,[63],1450 nM
same,TGI,[64],5360 nM
same,TGI,[65],4190 nM
same,GI50,[66],1120 nM
same,TGI,[66],4370 nM
same,TGI,[67],4700 nM
